This passage reports IC50 results from PMC6066988 (Frontiers in Microbiology, 2018).

The target of assay [1] is T1, DNA topoisomerase I (MtbTopoI) (Mycobacterium tuberculosis, UniProt P9WG49).
T1 construct: gene topA
Format: biochemical.

Assay [2] addresses T1, DNA topoisomerase I (MtbTopoI). Kind of assay: […]; also inhibits cleavage of a 32-mer single-stranded DNA. It is filed as biochemical.

Like-named read-outs stand apart in the source and are kept apart here.

T1 sequence (P9WG49 whole entry): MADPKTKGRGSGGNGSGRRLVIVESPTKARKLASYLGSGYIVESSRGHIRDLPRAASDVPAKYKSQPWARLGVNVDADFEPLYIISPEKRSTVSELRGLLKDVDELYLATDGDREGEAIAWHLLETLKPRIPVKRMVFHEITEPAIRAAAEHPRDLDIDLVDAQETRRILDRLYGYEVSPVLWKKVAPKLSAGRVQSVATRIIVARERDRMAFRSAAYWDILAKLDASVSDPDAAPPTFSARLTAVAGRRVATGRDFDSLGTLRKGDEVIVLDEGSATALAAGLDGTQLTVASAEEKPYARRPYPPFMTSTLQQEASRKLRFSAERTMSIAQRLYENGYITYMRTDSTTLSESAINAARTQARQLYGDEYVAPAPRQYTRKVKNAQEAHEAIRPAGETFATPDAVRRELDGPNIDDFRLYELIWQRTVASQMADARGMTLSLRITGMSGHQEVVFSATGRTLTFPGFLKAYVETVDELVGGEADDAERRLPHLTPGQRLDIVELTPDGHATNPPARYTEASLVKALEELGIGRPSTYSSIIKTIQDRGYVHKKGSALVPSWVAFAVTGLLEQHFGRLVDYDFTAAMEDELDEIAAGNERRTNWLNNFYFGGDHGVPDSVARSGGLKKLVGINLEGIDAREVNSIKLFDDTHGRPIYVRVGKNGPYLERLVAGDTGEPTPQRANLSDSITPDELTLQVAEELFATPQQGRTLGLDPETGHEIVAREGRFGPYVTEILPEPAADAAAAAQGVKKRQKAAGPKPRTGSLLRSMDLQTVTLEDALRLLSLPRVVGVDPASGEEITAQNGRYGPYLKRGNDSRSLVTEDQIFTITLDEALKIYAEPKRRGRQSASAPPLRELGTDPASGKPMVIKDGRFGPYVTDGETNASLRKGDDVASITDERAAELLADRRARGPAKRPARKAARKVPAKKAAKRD

Usually IC50 stands for the point on the concentration scale where inhibition reaches its midpoint. Low values mean greater potency, high ones weaker potency. `CN(C)CCc1cc2c(c3c1ccc1cc4c(cc13)OCO4)OCO2` [N-SCN, N-methyl-seconeolitsine] displayed an IC50 in assay [1] of 5.6 ± 0.8 µM.
`CNCCc1cc2c(c3c1ccc1cc4c(cc13)OCO4)OCO2` [SCN, seconeolitsine] yielded an IC50 in assay [2] of 8.4 ± 0.3 µM.
